# From patent US11980185B2, “Bioflavonoid compositions and their use for water purification and food preservation” (Citrox Biosciences Limited, priority 2018, dated 2024)
# How the values were obtained:
# Streptococcus mutans = test: Inhibition zone assay on BHI agar plate; format: cell-based; settings: 48 h at 37° C. anaerobe
# Procedure: The antibacterial activity of ε-polylysine was semi-quantitatively assessed in a inhibition zone assay. 0.1 mL of a confluent Streptococcus mutans culture was spread over a Brain Heart Infusion (BHI) agar plate. Filter platelets (5 mm diameter) soaked with 0.01 mL substance were applied on plate. Plates were incubated 48 h at 37° C. under anaerobe conditions. The diameter of outer limit of the inhibition zones were measured, the diameter of the platelet deduced and the half result considered the radius of inhibition rings. Concentrations were tested in triplicate and their results averaged.
# Escherichia coli [1] = test: Direct exposure growth inhibition of mini cultures by turbidity (MIC); format: cell-based; settings: 5 hours at 37° C.
# Procedure: Growth inhibition was monitored by measuring turbidity of mini cultures after 5 hours of aerobe incubation at 37° C. under agitation. Solutions were diluted to the half in cascade.
# S. mutans = test: Short exposure assay (bactericidal effect); format: cell-based, Streptococcus mutans; settings: 0.05%, 10 minutes exposure, 5000 Colony Forming Units
# Procedure: The short-term antibacterial activity of Citrox was semi-quantitatively assessed in a short exposure assay. A S. mutans culture, diluted in order to contain 5000 Colony Forming Units, was incubated for 10 minutes in presence of the antibacterial substance and extemporarily plated onto a BHI agar plate. Plates were incubated at 37° C. under anaerobe conditions and colony counted. […] Citrox 0.5% reduced the count of CFU to the half (<3000 CFU).
# [2] = system: chloroquine-sensitive Plasmodium chabaudi; test: Malaria infection in mice; format: in vivo; settings: 20 to 40 days post-treatment
# Glucose oxidase = Glucose oxidase (Aspergillus niger, UniProt P13006); test: Immobilisation of glucose oxidase onto silicate, residual activity in solution; settings: 0.25 mg/mL, 2 mg/mL silicate, artificial saliva buffer, FIG. 3
# Procedure: 0.5 mg/mL glucose oxidase enzyme was incubated for 15 minutes at room temperature in an artificial saliva buffer composition including:
# with 2 mg/mL silicate and 0.25 mg/mL of an amino acid based compound, bovine serum albumin (BSA), lysine or ε-polylysine. The mixture was centrifuged in order to pellet the silicate and the supernatant tested for its glucose oxidase activity in presence of glucose, lactoperoxidase and a chromogen substrate (ABTS). The resulting activities were compared with the enzyme incubated with silicate in absence of an amino acid compound (FIG. 3).
# Escherichia coli [3] = test: Pretreatment of high binding plates, growth inhibition by turbidity; format: cell-based
# Procedure: High Binding plates were pre-treated with 0.1 mL of pure Citrox/ε-Polylysine solutions incubated 60′ at room temperature. The concentrations of Citrox range from 0.06% to 4%. The ε-Polylysine concentrations range from 30 mg/L to 120 mg/L. The wells have been emptied and rinsed with 0.2 mL bi-distilled water. 0.2 mL of a diluted Escherichia coli culture (turbidity: 5 mOD at 600 nm) were given to the pre-treated wells and incubated for 3 hours at 37° C. Turbidity were measured at 600 nm and percentage of growth inhibition in comparison to untreated well calculated (FIG. 1).
# Chain of Glucose oxidase (P13006 17-605): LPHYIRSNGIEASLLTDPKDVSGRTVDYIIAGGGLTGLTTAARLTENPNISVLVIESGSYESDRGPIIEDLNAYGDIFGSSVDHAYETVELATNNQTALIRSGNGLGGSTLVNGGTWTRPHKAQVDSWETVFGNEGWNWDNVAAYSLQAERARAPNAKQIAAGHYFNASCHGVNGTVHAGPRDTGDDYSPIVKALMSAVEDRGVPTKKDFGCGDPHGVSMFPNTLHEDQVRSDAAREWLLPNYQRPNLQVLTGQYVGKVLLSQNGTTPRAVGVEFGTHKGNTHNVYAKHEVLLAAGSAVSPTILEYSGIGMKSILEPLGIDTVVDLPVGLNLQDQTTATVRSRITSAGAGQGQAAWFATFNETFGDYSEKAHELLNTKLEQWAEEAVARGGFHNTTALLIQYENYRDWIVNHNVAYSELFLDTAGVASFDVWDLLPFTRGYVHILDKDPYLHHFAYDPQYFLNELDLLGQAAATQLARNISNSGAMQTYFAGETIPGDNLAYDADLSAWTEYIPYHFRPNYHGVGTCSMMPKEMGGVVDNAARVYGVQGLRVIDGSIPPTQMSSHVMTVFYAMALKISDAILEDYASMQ
molecule,measurement,setting,value
"CCO [Ethanol, reference compound]",Radius of inhibition rings,Streptococcus mutans; concentration not given,5 mm
same,Minimal inhibitory concentration (MIC),"Escherichia coli [1]; less than 2% (6% in case of ethanol) of growth, extrapolated from FIG. 2, 1% corresponds to 10 g/L",12.5%
"OO [Water peroxide, reference compound]",colony formation,S. mutans,complete absence of colony formation
same,Radius of inhibition rings,Streptococcus mutans; 0.1%,1.5 mm
same,Radius of inhibition rings,Streptococcus mutans; 1%,5 mm
CCN(CC)CCCC(C)Nc1ccnc2cc(Cl)ccc12 (stereo not shown) [chloroquine],infection level,[2],approx. zero infection
ε-Polylysine,immobilization of Glucose oxidase onto silicate,Glucose oxidase,promotes immobilization of Glucose oxidase onto silicate
same,Radius of inhibition rings,Streptococcus mutans; 10 mg/L,0.5 mm
same,Radius of inhibition rings,Streptococcus mutans; 100 mg/L,2.5 mm
same,Radius of inhibition rings,Streptococcus mutans; 1000 mg/L,6.5 mm
same,highest ε-polylysine concentration that does not affect significantly the antibacterial effect of Citrox pretreatment,Escherichia coli [3]; plate pretreatment together with Citrox,30 mg/L
same,inhibitory effect of pretreatment of a high binding plate,"Escherichia coli [3]; ε-polylysine alone, titers largely above the MIC of direct exposure",does not yield any inhibitory effect
same,Minimal inhibitory concentration (MIC),"Escherichia coli [1]; less than 2% of growth vs untreated control, extrapolated from FIG. 2",4 mg/L
